ChEMBL document CHEMBL1201862, “PubChem BioAssay data set” (2004)
Active and inactive are the calls of the source.

Columns and labels:
Vero = experiment: cells; type: functional, cell-based; conditions: Chlorocebus sabaeus
Coagulation factor XII = molecular target: T1, Coagulation factor XII (Homo sapiens, UniProt P00748); type: functional;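 further: activated factor XIIa alpha cleaving a fluorogenic AMC peptide substrate; inhibitor potency from loss of enzyme activity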
T1 sequence (P00748 whole entry): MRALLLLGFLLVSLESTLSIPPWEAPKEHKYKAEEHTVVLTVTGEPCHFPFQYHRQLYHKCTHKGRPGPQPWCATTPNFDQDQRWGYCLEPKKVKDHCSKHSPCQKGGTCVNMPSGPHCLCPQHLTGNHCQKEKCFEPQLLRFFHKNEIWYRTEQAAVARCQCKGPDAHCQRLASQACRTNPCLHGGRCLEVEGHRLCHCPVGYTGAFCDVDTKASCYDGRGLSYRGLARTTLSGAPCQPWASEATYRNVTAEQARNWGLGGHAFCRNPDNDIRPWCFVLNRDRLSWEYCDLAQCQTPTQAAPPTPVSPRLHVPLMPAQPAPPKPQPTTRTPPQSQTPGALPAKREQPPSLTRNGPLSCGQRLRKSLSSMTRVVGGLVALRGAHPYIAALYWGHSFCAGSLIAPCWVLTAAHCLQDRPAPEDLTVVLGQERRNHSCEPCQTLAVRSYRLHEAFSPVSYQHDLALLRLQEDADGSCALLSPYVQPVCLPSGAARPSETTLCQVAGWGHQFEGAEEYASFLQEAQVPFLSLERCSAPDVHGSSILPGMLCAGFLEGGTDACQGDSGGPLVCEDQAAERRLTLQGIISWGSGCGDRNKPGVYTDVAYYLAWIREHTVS

[1] = molecular target: T2, Type-1 angiotensin II receptor (Homo sapiens, UniProt P30556); experiment: AT1 receptor antagonists, dose response, selectivity assay for APJ receptor antagonist project, cell-based, uHTS hits (AID 463214); type: functional;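 further: antagonist potency against angiotensin II stimulated AT1 response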
T2 sequence (P30556 whole entry): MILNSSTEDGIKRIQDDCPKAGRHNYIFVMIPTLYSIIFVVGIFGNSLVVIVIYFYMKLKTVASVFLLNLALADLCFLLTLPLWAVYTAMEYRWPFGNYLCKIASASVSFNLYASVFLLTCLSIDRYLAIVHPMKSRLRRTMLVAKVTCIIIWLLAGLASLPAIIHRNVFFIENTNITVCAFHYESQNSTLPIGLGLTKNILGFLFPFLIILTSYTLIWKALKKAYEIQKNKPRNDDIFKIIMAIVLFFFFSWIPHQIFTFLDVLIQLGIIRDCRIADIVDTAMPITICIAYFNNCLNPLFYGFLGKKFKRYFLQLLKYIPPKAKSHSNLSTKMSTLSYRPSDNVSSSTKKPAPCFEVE

Beta-galactosidase [2] = molecular target: T3, Beta-galactosidase (Escherichia coli, UniProt Q8VNN2); experiment: PubChem AID 485352; type: functional
T3 sequence (Q8VNN2 whole entry, the tested form may be a part): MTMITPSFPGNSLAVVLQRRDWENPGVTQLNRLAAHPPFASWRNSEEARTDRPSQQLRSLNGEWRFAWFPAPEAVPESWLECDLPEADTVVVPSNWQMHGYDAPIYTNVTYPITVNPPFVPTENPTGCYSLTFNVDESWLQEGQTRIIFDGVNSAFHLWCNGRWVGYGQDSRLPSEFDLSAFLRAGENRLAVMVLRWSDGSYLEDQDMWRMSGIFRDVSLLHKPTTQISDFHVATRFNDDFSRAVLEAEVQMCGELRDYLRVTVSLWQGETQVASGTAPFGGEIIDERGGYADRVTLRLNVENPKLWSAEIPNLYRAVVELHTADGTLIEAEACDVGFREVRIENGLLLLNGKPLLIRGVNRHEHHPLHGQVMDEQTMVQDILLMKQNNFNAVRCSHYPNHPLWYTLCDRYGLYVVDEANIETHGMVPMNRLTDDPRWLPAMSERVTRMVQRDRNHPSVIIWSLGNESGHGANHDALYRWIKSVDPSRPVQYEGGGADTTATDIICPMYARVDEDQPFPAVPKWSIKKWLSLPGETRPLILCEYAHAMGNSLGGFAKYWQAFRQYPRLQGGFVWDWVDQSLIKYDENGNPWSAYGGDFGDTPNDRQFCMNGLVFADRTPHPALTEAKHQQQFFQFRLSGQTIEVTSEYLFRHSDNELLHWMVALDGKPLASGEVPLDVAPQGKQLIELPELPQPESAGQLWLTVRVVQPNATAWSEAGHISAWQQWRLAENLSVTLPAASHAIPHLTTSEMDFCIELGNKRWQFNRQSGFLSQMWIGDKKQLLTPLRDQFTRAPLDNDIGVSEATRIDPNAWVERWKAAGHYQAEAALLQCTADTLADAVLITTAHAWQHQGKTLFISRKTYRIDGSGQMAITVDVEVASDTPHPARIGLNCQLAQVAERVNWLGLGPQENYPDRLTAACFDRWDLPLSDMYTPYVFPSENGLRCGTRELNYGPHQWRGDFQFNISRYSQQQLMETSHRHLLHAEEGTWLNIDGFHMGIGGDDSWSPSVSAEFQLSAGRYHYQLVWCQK

[3] = off-target signal loss in HeLa-CEM21 co-culture – HeLa F-luc CTL cells, cherry-picked, counter-screen for HIV-1 Env fusion inhibitor project, dose response (AID 652040); type: functional, cell-based;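 further: potency for signal decrease marking cytotoxic or nonspecific inhibition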
[4] = inhibitors of clade B AD8 Env fusion, dose response, cell-based, cherry-pick (AID 652062); type: functional;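 further: luciferase signal from cell-cell fusion driven by HIV-1 clade B AD8 Env; potency is for inhibitors of fusion seen as a drop in luminescence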
[5] = inhibitors of HIV Env-driven cell fusion, dose response, cherry-pick (AID 652057); type: functional, cell-based
[6] = ZM109 Env clade C HIV-1 fusion inhibitors, dose response, HeLa effector, CEM target cells, luciferase, cherry-pick (AID 652058); type: functional, cell-based
Beta-galactosidase [7] = molecular target: T3, Beta-galactosidase; experiment: Dose response counterscreen for EBI2 assay utilizing the enzyme, b-galactosidase.; type: functional
[8] = Shn3 3'UTR reporter inhibitors, dose response, cell-based, Clone20 osteoblasts, firefly luciferase, cherry-picked (AID 624132); type: functional;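 further: firefly luciferase luminescence from reporter carrying the Shn3 3'UTR in osteoblasts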
[9] = control 3'UTR Renilla luciferase suppression, dose response, counter-screen for Shn3 inhibitor project, cell-based, Clone20-Shn3RL, cherry-picked (AID 624133); type: functional
[10] = HepG2 cell cytotoxicity, dose response, cytotoxicity control for Shn3 inhibitor project, CellTiter-Glo, cherry-picked (AID 624134); type: functional, cell-based
[11] = molecular target: T4, Histone-lysine N-methyltransferase NSD2 (Homo sapiens, UniProt O96028); type: biochemical
T4 sequence (O96028 whole entry): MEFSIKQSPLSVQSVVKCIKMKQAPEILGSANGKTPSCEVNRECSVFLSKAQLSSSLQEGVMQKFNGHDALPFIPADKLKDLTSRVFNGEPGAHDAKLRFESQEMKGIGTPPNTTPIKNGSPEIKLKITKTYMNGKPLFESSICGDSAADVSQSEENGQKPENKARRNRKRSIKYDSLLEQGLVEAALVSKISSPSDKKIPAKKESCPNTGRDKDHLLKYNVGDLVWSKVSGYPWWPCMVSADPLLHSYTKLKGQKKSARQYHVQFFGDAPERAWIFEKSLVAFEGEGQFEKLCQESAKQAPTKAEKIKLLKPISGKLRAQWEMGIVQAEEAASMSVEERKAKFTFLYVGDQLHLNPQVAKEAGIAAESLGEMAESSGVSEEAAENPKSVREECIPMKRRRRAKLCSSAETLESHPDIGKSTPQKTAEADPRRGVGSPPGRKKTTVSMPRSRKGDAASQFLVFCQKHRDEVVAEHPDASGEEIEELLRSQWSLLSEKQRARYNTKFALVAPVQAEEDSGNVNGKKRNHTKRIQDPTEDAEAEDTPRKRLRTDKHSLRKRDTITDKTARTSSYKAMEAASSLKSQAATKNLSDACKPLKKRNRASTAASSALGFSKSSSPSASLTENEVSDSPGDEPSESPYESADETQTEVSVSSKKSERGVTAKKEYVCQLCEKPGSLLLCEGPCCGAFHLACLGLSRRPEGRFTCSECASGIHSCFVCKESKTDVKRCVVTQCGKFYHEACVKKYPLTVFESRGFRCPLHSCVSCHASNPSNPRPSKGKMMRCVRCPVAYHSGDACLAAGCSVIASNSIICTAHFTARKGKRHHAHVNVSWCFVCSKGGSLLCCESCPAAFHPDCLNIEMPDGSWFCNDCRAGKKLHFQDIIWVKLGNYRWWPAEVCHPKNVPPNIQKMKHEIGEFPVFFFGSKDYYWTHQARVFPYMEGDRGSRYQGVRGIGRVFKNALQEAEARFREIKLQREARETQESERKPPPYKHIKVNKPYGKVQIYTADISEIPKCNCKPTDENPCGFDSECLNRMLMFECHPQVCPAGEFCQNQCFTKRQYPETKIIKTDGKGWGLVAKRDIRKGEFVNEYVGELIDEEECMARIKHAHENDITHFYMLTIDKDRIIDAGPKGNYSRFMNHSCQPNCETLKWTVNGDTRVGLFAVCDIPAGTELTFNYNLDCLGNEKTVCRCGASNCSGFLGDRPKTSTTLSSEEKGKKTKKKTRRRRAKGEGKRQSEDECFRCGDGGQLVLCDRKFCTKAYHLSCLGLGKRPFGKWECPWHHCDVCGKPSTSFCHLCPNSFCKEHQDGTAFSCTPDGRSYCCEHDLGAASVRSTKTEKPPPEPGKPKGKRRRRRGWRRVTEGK

[12] = C. albicans growth with fluconazole, confirmation, fluorescence, retest (AID 2467); type: functional, cell-based
[13] = NIH-3T3 fibroblast cytotoxicity, dose response, cytotoxicity control, cell-based, fluorescence, Alamar Blue, secondary assay (AID 2327); type: functional;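 further: NIH-3T3 mouse fibroblasts cultured with fluconazole at 8 µg/mL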
[14] = molecular target: T5, Polyadenylate-binding protein 1 (Homo sapiens, UniProt P11940); experiment: PABP1 MLLE–PAM2 interaction inhibitors, dose response, miRNA deadenylation inhibitor project, biochemical, fluorescence polarization, Cy5-PAM2 peptide, secondary (AID 602260); type: functional; conditions: read-out: IC50_Mean
T5 sequence (P11940 whole entry): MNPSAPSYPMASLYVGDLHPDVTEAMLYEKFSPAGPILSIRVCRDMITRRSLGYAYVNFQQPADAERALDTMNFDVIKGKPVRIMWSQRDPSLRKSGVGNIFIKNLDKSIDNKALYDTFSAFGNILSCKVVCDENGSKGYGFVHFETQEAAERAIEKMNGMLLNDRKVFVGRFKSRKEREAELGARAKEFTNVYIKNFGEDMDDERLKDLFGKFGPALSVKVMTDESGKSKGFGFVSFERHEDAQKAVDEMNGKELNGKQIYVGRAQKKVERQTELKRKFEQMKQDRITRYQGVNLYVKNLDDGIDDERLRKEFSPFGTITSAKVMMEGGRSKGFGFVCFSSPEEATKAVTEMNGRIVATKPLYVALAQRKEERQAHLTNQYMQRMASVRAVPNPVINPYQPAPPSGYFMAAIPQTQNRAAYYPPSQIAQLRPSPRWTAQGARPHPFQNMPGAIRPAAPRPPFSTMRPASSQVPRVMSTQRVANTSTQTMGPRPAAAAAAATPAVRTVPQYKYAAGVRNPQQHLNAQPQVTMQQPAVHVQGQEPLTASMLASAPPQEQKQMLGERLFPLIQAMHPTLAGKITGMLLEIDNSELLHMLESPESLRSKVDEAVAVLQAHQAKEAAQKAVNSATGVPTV

[15] = molecular target: T5, Polyadenylate-binding protein 1; experiment: PABP1 MLLE–PAM2 binding inhibitor potency, dose response, biochemical, fluorescence polarization, FITC-PAM2 peptide (AID 602259); type: functional; conditions: read-out: IC50_Mean

O=C1C2CCCN2C(c2ccccc2)N1c1ccc(Cl)cc1 (configuration not stated)
IC50 (Vero): > 25 µM (active)

COc1cccc(NC(=O)Nc2cccnc2)c1
IC50 (Coagulation factor XII): > 50 µM (inactive)

Cc1ccc2c(c1)nnn2C1CCN(CC(=O)NCCc2nc3ccccc3[nH]2)CC1
IC50 [1]: > 40 µM (not active)
EC50 (Beta-galactosidase [2]): > 40 µM (inactive)

CCOc1ccc(OCc2cccc(C(=O)N3CCOCC3)c2)cc1
AC50 [3]: 5.29 µM (active)
AC50 [4]: 7.58 µM (active)
AC50 [5]: 2.64 µM (active)
AC50 [6]: 22 µM (active)

CCOC(=O)c1c(O)c2cc(Cl)ccc2n(CC)c1=O
IC50 (Coagulation factor XII): > 50 µM (inactive)

Cc1nc2ccccc2c2oc(C(=O)N3CCN(C4CCCCC4)CC3)cc12
IC50 (Beta-galactosidase [7]): > 80 µM (inactive)
AC50 [8]: 7.02 µM (active)
AC50 [9]: 3.44 µM (active)
AC50 [10]: 68.8 µM (active)

Cc1cc2ccccn2c1C(=S)NC(=O)c1ccccc1
AC50 [11]: > 20 µM (inactive)

Cc1cc(OCC(=O)N(C)Cc2ccccc2)ccc1Br
IC50 (Beta-galactosidase [7]): > 80 µM (inactive)

O=C(NNc1ccc(Cl)cc1)c1sccc1Cl
IC50 [1]: 12.4 µM (active)
EC50 (Beta-galactosidase [2]): > 40 µM (inactive)
EC50 [12]: 2.04 µM (active)
EC50 [13]: 3.77 µM (active)
IC50 [14]: > 66 µM (inactive)
IC50 [15]: > 66 µM (inactive)

COc1cccc(-c2noc(C3CCCN(S(=O)(=O)c4cccc(Cl)c4C)C3)n2)c1 (configuration not stated)
AC50 [3]: 16.5 µM (active)
AC50 [4]: 11.9 µM (active)
AC50 [5]: 6.22 µM (active)
AC50 [6]: 10.9 µM (active)

COc1ccc(-n2cc(-c3ccc(Br)cc3)nc2S)cc1
IC50 (Beta-galactosidase [7]): > 80 µM (inactive)

CCN1C(=O)/C(=C\c2ccco2)C(C(=O)OC)=C1C
IC50 (Coagulation factor XII): > 50 µM (inactive)
